Read-outs that look alike come from different tables or passages of the source.
What was measured:
[1] = tested on: S. aureus USA 300 alpha toxin; details: 3 h incubation; hemolysis of 2% rabbit RBC, OD416 nm; FIG. 4
Protocol: • 1. Grow USA300 in MHA plate O/N • 2. Swab bacteria culture from plate and re-suspend in 2 ml PBS • 3. Spin and discard sup. • 4. Wash with 2 ml of PBS. • 5. Re-suspend in 2 ml LB. • 6. […] Add inoculum (make two different inoculum size: 1 and 1:10 in LB). […] Incubate at 370 C for 3 h • 11. Read growth OD600 (T3). • 12. Perform alpha hemolytic assay by using 2% rabbit RBC. Read OD416 nm (T3 hemolysis)

[2] = tested on: P. aeruginosa 4858; test: Minimum Bactericidal Concentration (MBC); format: cell-based
Protocol: (§1) MBC is the lowest concentration of compound required to kill an organism. […] In the case of small colony variants, growth might not occur earlier than 48 hours.

[3] = tested on: S. aureus (USA300); test: Minimum Bactericidal Concentration (MBC); format: cell-based
Protocol: as §1

[4] = tested on: S. aureus (8324-5); test: Minimum Bactericidal Concentration (MBC); format: cell-based
Protocol: as §1

[5] = tested on: S. aureus (Col); test: Minimum Bactericidal Concentration (MBC); format: cell-based
Protocol: as §1

[6] = tested on: S. aureus; test: Minimum Bactericidal Concentration (MBC); format: cell-based; details: UV-4B
Protocol: as §1

[7] = tested on: B. subtilis; test: Minimum Bactericidal Concentration (MBC); format: cell-based
Protocol: as §1

[8] = tested on: P. aeruginosa 4990
Protocol: as §1

[9] = tested on: E. coli (WT)
Protocol: as §1

[10] = tested on: P. aeruginosa 4961
Protocol: as §1

[11] = tested on: E. coli (K12)
Protocol: as §1

[12] = tested on: S. aureus (USA300); test: Minimum Inhibitory Concentration (MIC); format: cell-based
Protocol: The MIC assay is a technique used to determine the lowest concentration of a particular antibiotic needed to inhibit visible growth of bacteria. In this method, two fold serial dilutions of the compound were prepared in broth media. An inoculum of overnight bacterial cultures will be prepared in the same broth medium. The serial dilution tubes will be inoculated with 0.025 ml of undiluted over-night culture (1:100), a 1×10-2 dilution (1:10,000), or a 1×10-4 dilution (1:1,000,000) of bacterial suspension. Results were recorded after 24 hour incubation at 35° C. without shaking by measuring OD600. The MIC is determined by the lowest concentration of compound where no growth is visible.

For `COCCCCCCCCCN1C[C@H](O)[C@@H](O)[C@H](O)[C@H]1CO.Cl` [UV-4B, hydrochloric acid salt of N-(9-Methoxynonyl)deoxynojirimycin], the “concentration allowing inhibition of alpha toxin production” value [1] was “higher than 2.5 mg/ml”, the MBC ([2]; UV-4B) was greater than 20 mg/mL and the “growth after re-inoculation on BHI agar” value ([2]; UV-4B 2.50 mg/ml) was “+”. For the same compound, the “growth after re-inoculation on BHI agar” value ([2]; UV-4B 5.00 mg/ml) was “+”, the “growth after re-inoculation on BHI agar” value ([2]; UV-4B 10 mg/ml) was “+” and the “growth after re-inoculation on BHI agar” value ([2]; UV-4B 20 mg/ml) was “+”. For the same compound, the MBC ([3]; UV-4B) was greater than 20 mg/mL, the “growth after re-inoculation on BHI agar” value ([3]; UV-4B 2.50 mg/ml) was “+” and the “growth after re-inoculation on BHI agar” value ([3]; UV-4B 5.00 mg/ml) was “+”. For the same compound, the “growth after re-inoculation on BHI agar” value ([3]; UV-4B 10 mg/ml) was “+”, the “growth after re-inoculation on BHI agar” value ([3]; UV-4B 20 mg/ml) was “+” and the “growth after re-inoculation on BHI agar” value ([4]; UV-4B 2.50 mg/ml) was “+”. For the same compound, the “growth after re-inoculation on BHI agar” value ([4]; UV-4B 5.00 mg/ml) was “+”, the “growth after re-inoculation on BHI agar” value ([4]; UV-4B 10 mg/ml) was “+” and the “growth after re-inoculation on BHI agar” value ([4]; UV-4B 20 mg/ml) was “−”. The MBC ([5]; UV-4B) was 2.5 mg/mL, the “growth after re-inoculation on BHI agar” value ([5]; UV-4B 2.50 mg/ml) was “−” and the “growth after re-inoculation on BHI agar” value ([5]; UV-4B 5.00 mg/ml) was “−”. For the same compound, the “growth after re-inoculation on BHI agar” value ([5]; UV-4B 10 mg/ml) was “−”, the MBC [6] was 20 mg/mL and the MBC ([7]; UV-4B) was greater than 10 mg/mL. For the same compound, the “growth after re-inoculation on BHI agar” value ([7]; UV-4B 2.50 mg/ml) was “+”, the “growth after re-inoculation on BHI agar” value ([7]; UV-4B 5.00 mg/ml) was “+” and the “growth after re-inoculation on BHI agar” value ([7]; UV-4B 10 mg/ml) was “+”. The MBC ([8]; UV-4B) was greater than 20 mg/mL, the “growth after re-inoculation on BHI agar” value ([8]; UV-4B 2.50 mg/ml) was “+” and the “growth after re-inoculation on BHI agar” value ([8]; UV-4B 5.00 mg/ml) was “+”. For the same compound, the “growth after re-inoculation on BHI agar” value ([8]; UV-4B 10 mg/ml) was “+”, the “growth after re-inoculation on BHI agar” value ([8]; UV-4B 20 mg/ml) was “+” and the MBC ([9]; UV-4B) was 10 mg/mL. The “growth after re-inoculation on BHI agar” value ([9]; UV-4B 2.50 mg/ml) was “+”, the “growth after re-inoculation on BHI agar” value ([9]; UV-4B 5.00 mg/ml) was “+” and the “growth after re-inoculation on BHI agar” value ([9]; UV-4B 10 mg/ml) was “−”. The MBC ([10]; UV-4B) was greater than 20 mg/mL, the “growth after re-inoculation on BHI agar” value ([10]; UV-4B 2.50 mg/ml) was “+” and the “growth after re-inoculation on BHI agar” value ([10]; UV-4B 5.00 mg/ml) was “+”. For the same compound, the “growth after re-inoculation on BHI agar” value ([10]; UV-4B 10 mg/ml) was “+”, the “growth after re-inoculation on BHI agar” value ([10]; UV-4B 20 mg/ml) was “+” and the MBC ([11]; UV-4B) was 20 mg/mL. For the same compound, the “growth after re-inoculation on BHI agar” value ([11]; UV-4B 2.50 mg/ml) was “+”, the “growth after re-inoculation on BHI agar” value ([11]; UV-4B 5.00 mg/ml) was “+” and the “growth after re-inoculation on BHI agar” value ([11]; UV-4B 10 mg/ml) was “+”. The “growth after re-inoculation on BHI agar” value ([11]; UV-4B 20 mg/ml) was “+”, the MIC ([12]; Table 3, two independent tests) was 2.5 mg/mL and the MIC ([12]; Table 4) was 0.0625 mg/mL. The “growth (OD600)” value ([12]; Table 4, 0.02 mg/ml) was “+ (+ OD600 <0.05)”, the “growth (OD600)” value ([12]; Table 4, 0.04 mg/ml) was “+ (+ OD600 <0.05)” and the “growth (OD600)” value ([12]; Table 4, 0.08 mg/ml) was “+ (+ OD600 <0.05)”. The “growth (OD600)” value ([12]; Table 4, 0.16 mg/ml) was “+ (+ OD600 <0.05)”, the “growth (OD600)” value ([12]; Table 4, 0.31 mg/ml) was “+ (+ OD600 <0.05)” and the “growth (OD600)” value ([12]; Table 4, 0.63 mg/ml) was “− (− OD600 >0.05)”. For the same compound, the “growth (OD600)” value ([12]; Table 4, 2.50 mg/ml) was “− (− OD600 >0.05)”, the “growth (OD600)” value ([12]; Table 4, 5 mg/ml) was “− (− OD600 >0.05)” and the “growth (OD600)” value ([12]; Table 4, 10 mg/ml) was “− (− OD600 >0.05)”. For the same compound, the “growth (OD600)” value ([12]; Table 4, 20 mg/ml) was “− (− OD600 >0.05)”, the visible growth ([12]; UV-4B 0.04 mg/ml) was “+” and the visible growth ([12]; UV-4B 0.08 mg/ml) was “+”. For the same compound, the visible growth ([12]; UV-4B 0.16 mg/ml) was “+”, the visible growth ([12]; UV-4B 0.31 mg/ml) was “+” and the visible growth ([12]; UV-4B 0.63 mg/ml) was “+”. For the same compound, the visible growth ([12]; UV-4B 2.50 mg/ml) was “−”, the visible growth ([12]; UV-4B 5 mg/ml) was “−” and the visible growth ([12]; UV-4B 10 mg/ml) was “−”. For the same compound, the visible growth ([12]; UV-4B 20 mg/ml) was “−”.
